These results are taken from patent US9751919B2, “Antimicrobial compositions comprising a hyaluronic acid binding peptide and a β-lactam antibiotic” (priority 2012, dated 2017).

“And” between values parts separate entries of the source, which are not always exact repeats. Equal entries are not always repeated. “Also recorded” adds a separate entry of the source. Where only a bound is given, the exact number is not on record here.

Test [1] has as its system CA-MRSA. Briefly: MIC (CLSI broth dilution), agent alone. The test is classed as cell-based, Staphylococcus aureus. The following applies: agent alone. The method, then:
(§1) VISA (strains 92, 95 and 96), VRSA (strains 105 and 106) and E. coli (strain 69717) isolates were also tested. One MSSA was used as a control. All MICs were assessed using CLSI guidelines. Also assessed was the activity of cefazolin, ceftriazone, meropenem, and a piperacillin/tazobactam combination antibiotic. Minimum inhibitory concentration (MIC) is the lowest concentration of an antimicrobial that will inhibit the visible growth of a microorganism after incubation.
(§2) Antimicrobial Susceptibility Testing: A custom designed panel of antimicrobials was created. […] These agents were obtained as laboratory grade powders from their respective manufacturers. Stock solutions were prepared and dilutions made as described by the Clinical Laboratory Standards Institute (2005 CLSI). Following two subcultures from frozen stock the MICs of the antimicrobial agents for the isolates were determined by the CLSI 2005 approved broth macrodilution method. Briefly, test tubes containing doubling antibiotic dilutions (2 ml per tube) of cation adjusted Mueller-Hinton broth (eg. for Enterobacteriaceae) with or without lysed horse blood (2-5% V/V) [eg. for S. pneumoniae] were inoculated to achieve a final concentration of approximately 5×10^5 CFU/ml and incubated in ambient air for 24 hours prior to reading. Colony counts were performed periodically to confirm inocula. Quality control was performed every two weeks using a variety of ATCC QC organisms including; S. aureus 29213, E. faecalis 29212, E. coli 25922 and P. aeruginosa 27853.
(§3) One MSSA was used as a control. All MICs were assessed using CLSI guidelines.
(§4) One MS SA and ATCC reference strains were used as controls. All MICs were assessed using CLSI guidelines.
Background: Broth dilution looks for growth in wells or tubes with falling amounts of substance.

The test system of test [2] is HA-MRSA. Briefly: MIC (CLSI broth dilution), agent alone. The following applies: agent alone. The test is classed as cell-based, Staphylococcus aureus. The method, then: as §1, §2, §3, §4
The subject of the next test is MSSA. Kind of test: MIC (CLSI broth dilution), agent alone. The test is classed as cell-based, Staphylococcus aureus. The conditions noted are these: MSSA 79333, agent alone. The method, then: as §1, §2, §3, §4
In test [3] the test system is VRSA. Briefly: MIC (CLSI broth dilution), agent alone. Also on record: unit not given beside the values. The test is classed as cell-based, Staphylococcus aureus. The procedure: as §1
(§5) Antimicrobial Susceptibility Testing: A custom designed panel of antimicrobials was created. The panel included: PEP35, penicillin, piperacillin/tazobactam, cefazolin, ceftriaxone, meropenem, clarithromycin, clindamycin, gentamicin, amikacin, vancomycin, ciprofloxacin, levofloxacin, moxifloxacin, linezolid, trimethoprim/sulfamethoxazole and doxycycline. These agents were obtained as laboratory grade powders from their respective manufacturers. Stock solutions were prepared and dilutions made as described by the Clinical Laboratory Standards Institute (2005 CLSI). Following two subcultures from frozen stock the MICs of the antimicrobial agents for the isolates were determined by the CLSI 2005 approved broth macrodilution method. Briefly, test tubes containing doubling antibiotic dilutions (2 ml per tube) of cation adjusted Mueller-Hinton broth (eg. for Enterobacteriaceae) with or without lysed horse blood (2-5% V/V) [eg. for S. pneumoniae] were inoculated to achieve a final concentration of approximately 5×10^5 CFU/ml and incubated in ambient air for 24 hours prior to reading. Colony counts were performed periodically to confirm inocula. Quality control was performed every two weeks using a variety of ATCC QC organisms including; S. aureus 29213, E. faecalis 29212, E. coli 25922 and P. aeruginosa 27853. For all antimicrobials as well as PEP35, CLSI criteria were used.
as §3

A further test concerns VISA. Briefly: MIC (CLSI broth dilution), agent alone. Also on record: unit: µg/mL. The test is classed as cell-based, Staphylococcus aureus. The method, then:
as §1, §5, §3

For another test, the system named is E. coli. Kind of test: MIC (CLSI broth dilution), agent alone. The test is classed as cell-based, Escherichia coli. The conditions noted are these: agent alone. The procedure: as §1, §5, §4
The test system of test [4] is CA-MRSA. Briefly: Antibiotic MIC with fixed concentration of peptide. The test is classed as cell-based, Staphylococcus aureus. The conditions noted are these: versus CA-MRSA; Table 13. The method, then:
as §3, §4

The subject of test [5] is HA-MRSA. Briefly: Antibiotic MIC with fixed concentration of peptide. The test is classed as cell-based, Staphylococcus aureus. The following applies: HA-MRSA strains; Table 13. The method, then:
as §3, §4

Test [6] has as its system VRSA. Briefly: Antibiotic MIC with fixed concentration of peptide. The test is classed as cell-based, Staphylococcus aureus. The conditions noted are these: VISA and VRSA; Table 13. The method, then:
as §3

The subject of test [7] is MRSA, VISA, VRSA and E. coli. Kind of test: MIC, agent alone, panel statement. The conditions noted are these: versus MRSA, VISA, VRSA and E. coli. The test is classed as cell-based. The method, then: as §1, §5
Test [8] concerns MRSA, VISA, VRSA and E. coli. Briefly: Checkerboard assay, panel statement. The test is classed as cell-based. The conditions noted are these: with β-lactams versus MRSA, VISA, VRSA and E. coli. The method, then: Checkerboard assays were carried out as described by Bonapace et al.
Diagnostic Microbiology and Infectious Diseases 2002; 44:363-366. In brief, checkerboard assays were performed in 96 well microtitre trays using an 8-by-8 well configuration. […] 96-well custom designed microtitre plates contained 100 ul/well of cation adjusted Mueller-Hinton broth (eg. for Enterobacteriaceae) with or without lysed horse blood (2-5% V/V) [eg. for S. pneumoniae] and were inoculated to achieve a final concentration of approximately 5×10^5 CFU/ml and incubated in ambient air for 24 hours prior to reading. Colony counts were performed periodically to confirm inocula. Quality control was performed every two weeks using a variety of ATCC QC organisms including; S. pneumoniae 49619, S. aureus 29213, E. faecalis 29212, E. coli 25922 and P. aeruginosa 27853. […] All peptides were assessed for synergy with β-lactams and vancomycin. For all antimicrobials as well as the peptides, CLSI criteria were used.
The fractional inhibitory concentration index (FIC index) was used to interpret synergy, antagonism or additivity/indifference. FIC index=FIC of drug A+FIC of drug B where:
The FIC of drug A and drug B was calculated as follows, FIC drug A=MIC of drug A in combination/MIC of drug A alone and FIC of drug B=MIC of drug B in combination/MIC of drug B alone. Synergy was defined as FIC index ≦0.5, additivity/indifference defined as a FIC between 0.5 and 4 and antagonism defined as an FIC index >4.
The fractional inhibitory concentration index (FIC index) was used to interpret synergy, antagonism or additivity/indifference. FIC index=FIC of drug A+FIC of drug B where the FIC of drug A and drug B was calculated as follows, FIC drug A=MIC of drug A in combination/MIC of drug A alone and FIC of drug B=MIC of drug B in combination/MIC of drug B alone. Synergy was defined as FIC index ≦0.5, additivity/indifference defined as an FIC of between 0.5 and 4 and antagonism defined as an FIC index >4.

Turning to “LKQKIKHVVKLKVVVKLRSQLAKKKQS (hybPEP35-1 conservative substitution human peptide variant) [human peptide variant of PEP35 with conservative substitutions]”, the MIC was 1024/1024 in the test on CA-MRSA [1] (CA-MRSA 69615 (USA400)); 1024/1024 in the test on CA-MRSA [1] (CA-MRSA 70857 (USA400)); > 2048 and 1024 in the test on HA-MRSA [2] (HA-MRSA 70798 (USA100/800), in µg/mL); 1024 and 512 with HA-MRSA [2] (HA-MRSA 77090 (USA100/800), in µg/mL); “≧2048/2048^” in the test on HA-MRSA [2] (HA-MRSA 77098 (USA100/800)); 128/128 with MSSA. Also, the MIC is 256 in the test on MSSA (in µg/mL); 128/128 with VRSA [3] (VRSA 105); 256 and 128 in the test on VRSA [3] (VRSA 105, in µg/mL); 256 with VRSA [3] (VRSA 106, in µg/mL); 128 and 256 in the test on VRSA [3] (VRSA 106, listed as hybPEP35, in µg/mL); >2048/>2048 with VISA (VISA 92). For the same sequence, the MIC with VISA (VISA 95) is >2048/2048; with VISA (VISA 96, in µg/mL), 1024; with VISA (VISA 96, listed as hybPEP35, in µg/mL) it was 1024 and 2048; in the test on E. coli (E. coli 69716, listed as hybPEP35-1, in µg/mL), 64; in the test on E. coli (E. coli 69716, listed as hybPEP35, in µg/mL), 128 and 64; in the test on E. coli (E. coli 70752), 64/64. Besides, in the test on E. coli (E. coli 70752, in µg/mL), the MIC stood at 32. Besides, the “synergy with β-lactams (in words)” value with CA-MRSA [4] is “Strong synergy”; in the test with HA-MRSA [5] it was “weak synergy; also recorded: stronger synergy”; in the test on VRSA [6], “mild to strong”. Also, the “activity (in words)” value in test [7] was “no activity; also recorded: not active”. The “synergistic activity (in words)” value in [8] was “synergistic activity”.
